Key:
MAB AI-18 [1] = assay: Competitive RIA: inhibition of MAB AI-18 binding to solid-phase Apo AI/HDL by competitor antigen or peptide; parameters: species or system mouse; settings: for B/Bo: background-adjusted
Experimental: One hundred ul of PBS (0.15M NaCl, 0.01M NaPO4, pH 7.2) containing 10 ug/ml Apo AI/HDL were admixed to the wells of microtiter plates. The plates were maintained for 1 hour at 20 degrees C. on a rotating platform to allow the Apo AI/HDL to adhere to the wells and form solid supports. After aspirating excess liquid from the wells, 200 ul of block solution (3% BSA, 3% NGS in PBS) was admixed to each well, and the wells were maintained for 30 minutes at 20 degrees C. on a rotating platform. Subsequently, the blocking solution was removed by aspiration and the wells were washed 3 times with SPRIA buffer.
In control wells either competing antigen or antibody was replaced by PBS containing 3% BSA.
The immunoreaction admixtures were maintained about 16 hours at 4 degrees C. on a rotating platform to permit formation of solid-phase immunoreaction products. […] The labeling immunoreaction admixtures so formed were maintained for 4 hours at 4 degrees C. on a rotating platform.
[…] of serial 3 fold dilutions of each sample prepared in Table 3 were admixed as competitor in the RIA described in this Example.
Fifty microliters of the stock of 2 fold serial dilutions of the stock were used as competitor in the RIA described in this Example.

MAB AI-18 [2] = assay: Solid-phase polypeptide competitive ELISA (AI90-105 coated wells, HRP-type labeled MAB AI-18); format: binding, mouse; settings: reference material: pool of about 20 normal plasmas; FIG. 8
Experimental: Six hundred microliters of 25 mM NH4 HCO3, pH 9.6, containing polypeptide AI90-105 at a concentration of 5 mg/ml were admixed with 119.4 ml of 0.1M NaHC)3, pH 9.0, to form a peptide coating solution. One hundred fifty microliters of the coating solution were admixed into the wells of flexible polyvinyl chloride microtiter plates (Nunc, Source). The wells were then maintained about 16-20 hours at 4 degrees C. to permit the peptide to adsorb onto (coat) the walls of the wells. After removing the peptide coating solution by shaking, the wells were washed once with 350 ul of rinsing buffer (PBS containing 1 gm/l BSA, 0.5 ml/l Tween 20, and 2 ul/l aprotinin). Excess protein binding sites were blocked by admixing 200 ul of blocking buffer (PBS containing 3% BSA) into each well, maintaining the wells for 1 hour at 20 degrees C., removing the blocking buffer by shaking, and then washing the wells 3 times as previously described. […]
Two hundred microliters of OPD substrate were then admixed into each well to form a developing-reaction admixture, which was maintained for 30 minutes at about 20 degrees C. Subsequently, 50 ul of 4N H2 SO4 were admixed into each well to stop the developing-reaction, and the resulting solution were assayed for absorbance at 490 nanometers using a microtiter plate reader (Dynatech). […]

Substance | Immunoreactivity (concentration of peptide competitor required to achieve a B/Bo value of 0.5) (MAB AI-18 [1]; competitive RIA, MAB AI-18 ascites 1:1.25×10^5, solid-phase Apo AI/HDL) [ug protein/ml] | immunoreactivity of MAB AI-18 for peptide compared with reference material (MAB AI-18 [2]) | expression of the epitope recognized by MAB AI-18 after NaOH treatment (MAB AI-18 [1]; NaOH treated Apo AI/HDL, 18 hours at about 20 degrees C) | CPM of 125I-labeled solid phase immunoreaction product (MAB AI-18 [1]; competitor dilution 1:3) [CPM] | B/Bo (MAB AI-18 [1]; competitor dilution 1:3) | CPM of 125I-labeled solid phase immunoreaction product (MAB AI-18 [1]; competitor dilution 1:9) [CPM] | B/Bo (MAB AI-18 [1]; competitor dilution 1:9) | CPM of 125I-labeled solid phase immunoreaction product (MAB AI-18 [1]; competitor dilution 1:27) [CPM] | B/Bo (MAB AI-18 [1]; competitor dilution 1:27) | CPM of 125I-labeled solid phase immunoreaction product (MAB AI-18 [1]; competitor dilution 1:81) [CPM] | B/Bo (MAB AI-18 [1]; competitor dilution 1:81) | CPM of 125I-labeled solid phase immunoreaction product (MAB AI-18 [1]; competitor dilution 1:243) [CPM] | B/Bo (MAB AI-18 [1]; competitor dilution 1:243) | CPM of 125I-labeled solid phase immunoreaction product (MAB AI-18 [1]; competitor dilution 1:729) [CPM] | B/Bo (MAB AI-18 [1]; competitor dilution 1:729) | CPM of 125I-labeled solid phase immunoreaction product (MAB AI-18 [1]; competitor dilution Neat) [CPM] | B/Bo (MAB AI-18 [1]; competitor dilution Neat)
LEEVKAKVQPYLDDFQ [AI90-105] | 30 | equivalent immunoreactivities |  |  |  |  |  |  |  |  |  |  |  |  |  |  | 
G: NaOH treated Apo AI/HDL, 250 ul 1N NaOH, pH 12.85 |  |  | decrease in expression of the epitope | 305 | 0.016 | 339 | 0.019 | 497 | 0.039 | 771 | 0.074 | 1157 | 0.124 | 1891 | 0.218 | 195 | 0.000
